Assay: Inhibition of 5-FAM-BH3 peptide binding to N-terminal His8-tagged human MCL-1 (209 to 327 residues)/mouse MCL-1 (152 to 189 residues) expressed in Escherichia coli BL21 (DE3) by fluorescence polarization assay

SMILES	Ki
Cc1cc(OCCOc2ccc(C[C@H](NC(=O)OC(C)(C)C)C(=O)NS(=O)(=O)c3ccc(NCCOc4ccccc4)c([N+](=O)[O-])c3)cc2)cc(C)c1Cl	670 nM
CC(C)(C)OC(=O)N[C@@H](Cc1ccc(OCCOc2cccc3ccccc23)cc1)C(=O)NS(=O)(=O)c1ccc(Cl)c([N+](=O)[O-])c1	5000 nM
Cc1cc(OCCOc2ccc(C[C@H](NC(=O)OC(C)(C)C)C(=O)NS(=O)(=O)c3ccc(Cl)c([N+](=O)[O-])c3)cc2)cc(C)c1Cl	700 nM
Cc1ccc(CC(=O)N[C@@H](Cc2ccc(OCCOc3cccc4ccccc34)cc2)C(=O)NS(=O)(=O)c2ccc(NCc3ccccc3)c([N+](=O)[O-])c2)cc1	760 nM
Cc1cc(OCCCCOc2ccc(C[C@H](NC(=O)OC(C)(C)C)C(=O)NS(=O)(=O)c3ccc(Cl)c([N+](=O)[O-])c3)cc2)cc(C)c1Cl	710 nM
Cc1ccc(C(=O)N[C@@H](Cc2ccc(OCCOc3cccc4ccccc34)cc2)C(=O)NS(=O)(=O)c2ccc(Cl)c([N+](=O)[O-])c2)cc1	710 nM
Cc1ccc(CC(=O)N[C@@H](Cc2cc(Cl)c(OCCOc3cccc4ccccc34)c(Cl)c2)C(=O)NS(=O)(=O)c2ccc(Cl)c([N+](=O)[O-])c2)cc1	720 nM
CC(C)(C)OC(=O)N[C@@H](Cc1ccc(OCCOc2ccccc2)cc1)C(=O)NS(=O)(=O)c1ccc(Cl)c([N+](=O)[O-])c1	> 15000 nM
Cc1cc(OCCOc2ccc(C[C@H](NC(=O)OC(C)(C)C)C(=O)NS(=O)(=O)c3ccc(NCCCc4ccccc4)c([N+](=O)[O-])c3)cc2)cc(C)c1Cl	450 nM
COc1ccc(CC(=O)N[C@@H](Cc2ccc(OCCOc3cccc4ccccc34)cc2)C(=O)NS(=O)(=O)c2ccc(NCCCc3ccccc3)c([N+](=O)[O-])c2)cc1	500 nM
Cc1ccc(CC(=O)N[C@@H](Cc2ccc(OCCOc3ccccc3)cc2)C(=O)NS(=O)(=O)c2ccc(Cl)c([N+](=O)[O-])c2)cc1	8500 nM
CC(C)(C)OC(=O)N[C@@H](Cc1cc(Cl)c(OCCOc2cccc3ccccc23)c(Cl)c1)C(=O)NS(=O)(=O)c1ccc(Cl)c([N+](=O)[O-])c1	1000 nM
O=C(Cc1ccc(Cl)cc1)N[C@@H](Cc1ccc(OCCOc2cccc3ccccc23)cc1)C(=O)NS(=O)(=O)c1ccc(Cl)c([N+](=O)[O-])c1	510 nM
Cc1ccc(CC(=O)N[C@@H](Cc2cc(I)c(OCCOc3cccc4ccccc34)c(I)c2)C(=O)NS(=O)(=O)c2ccc(Cl)c([N+](=O)[O-])c2)cc1	570 nM
Cc1ccc(CC(=O)N[C@@H](Cc2ccc(OCCOc3cc(C)c(Cl)c(C)c3)cc2)C(=O)NS(=O)(=O)c2ccc(NCCOc3ccccc3)c([N+](=O)[O-])c2)cc1	340 nM
CC(C)(C)OC(=O)N[C@@H](Cc1ccc(OCCOc2cccc3ccccc23)cc1)C(=O)NS(=O)(=O)c1ccc(NCCc2ccccc2)c([N+](=O)[O-])c1	420 nM
CC(C)(C)OC(=O)N[C@@H](Cc1ccc(OCCOc2ccc(Cl)cc2)cc1)C(=O)NS(=O)(=O)c1ccc(Cl)c([N+](=O)[O-])c1	4800 nM
Cc1ccc(CC(=O)N[C@@H](Cc2ccc(OCCOc3cccc4ccccc34)cc2)C(=O)NS(=O)(=O)c2ccc(NCCc3ccccc3)c([N+](=O)[O-])c2)cc1	470 nM
CC(C)(C)OC(=O)N[C@@H](Cc1ccc(OCCOc2cccc3ccccc23)cc1)C(=O)NS(=O)(=O)c1ccc(NCCCc2ccccc2)c([N+](=O)[O-])c1	1100 nM
Cc1ccc(CC(=O)N[C@@H](Cc2cc(Br)c(OCCOc3cccc4ccccc34)c(Br)c2)C(=O)NS(=O)(=O)c2ccc(Cl)c([N+](=O)[O-])c2)cc1	970 nM
Cc1ccc(CC(=O)N[C@@H](Cc2ccc(OCCOc3cccc4ccccc34)cc2)C(=O)NS(=O)(=O)c2ccc(NCCCc3ccccc3)c([N+](=O)[O-])c2)cc1	440 nM
Cc1ccc(CC(=O)N[C@@H](Cc2ccc(OCCOc3cccc4ccccc34)cc2)C(=O)NS(=O)(=O)c2ccc(Cl)c([N+](=O)[O-])c2)cc1	590 nM
Cc1ccc(CC(=O)N[C@@H](Cc2ccc(OCCOc3cc(C)c(Cl)c(C)c3)cc2)C(=O)NS(=O)(=O)c2ccc(Cl)c([N+](=O)[O-])c2)cc1	480 nM

Reference: ChEMBL document CHEMBL4765272, “Design, synthesis and biological evaluation of tyrosine derivatives as Mcl-1 inhibitors” (Eur J Med Chem, 2020)
